Results published in the supplement of paper PMC11061612.

Legend:
[1] = system: FU-OV-1 (Ovarian Carcinoma); assay: combination Emax (second highest fraction inhibited in the dose matrix, 72 h); higher = more inhibition; extreme values may be limits of the assay
Outline: (§1)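 Cell lines in DMEM/F12 or RPMI with 10% FBS were plated in 1536-well plates, held 24 hours at 37°C, 5% CO2, then given two-drug dose matrices for 72 hours (DMSO typically 0.2%). Viability was read by CellTiter-Glo 2.0 luminescence and scaled as inhibition from 0 (vehicle wells) to 1 (blank wells). Combination Emax is the second-highest inhibition in the matrix; Bliss excess is observed combination effect minus expected EA + EB − EA·EB, EA and EB being single-agent effects.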

[2] = system: BICR78 (Oral Cavity Carcinoma); assay: as above
Outline: as §1

[3] = system: HCT-116 (Colorectal Carcinoma); assay: as above
Outline: as §1

[4] = system: CAL-39 (Other Solid Carcinomas); assay: as above
Outline: as §1

[5] = system: DOK (Oral Cavity Carcinoma); assay: as above
Outline: as §1

[6] = system: NOMO-1 (Acute Myeloid Leukemia); assay: as above
Outline: as §1

[7] = system: YT (Other Blood Carcinomas); assay: as above
Outline: as §1

[8] = system: SLVL (B-Cell Non-Hodgkin's Lymphoma); assay: as above
Outline: as §1

[9] = system: SK-LMS-1 (Other Solid Carcinomas); assay: as above
Outline: as §1

D-392MG (Glioblastoma) = assay: as above
Outline: as §1

[10] = system: HLE (Hepatocellular Carcinoma); assay: as above
Outline: as §1

Saos-2 (Osteosarcoma) = assay: as above
Outline: as §1

[11] = system: TC-YIK (Other Solid Carcinomas); assay: as above
Outline: as §1

[12] = system: D-283MED (Other Solid Carcinomas); assay: Bliss excess, mean over the matrix (fraction); higher = more synergy;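 note: after 72 h of two-drug dosing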
Outline: as §1

Structure (SMILES)	combination Emax [1]	combination Emax [2]	combination Emax [3]	combination Emax [4]	combination Emax [5]	combination Emax [6]	combination Emax [7]	combination Emax [8]	combination Emax [9]	combination Emax (D-392MG (Glioblastoma))	combination Emax [10]	combination Emax (Saos-2 (Osteosarcoma))	combination Emax [11]	Bliss excess [12]
Cc1c2c(nn1C)CSCc1cc(n(C)n1)CSc1cc(c3ccccc3c1)OCCCc1c(C(=O)O)n(C)c3c-2c(Cl)ccc13 [AZD5991] + CS(=O)(=O)CCNCc1ccc(-c2ccc3ncnc(Nc4ccc(OCc5cccc(F)c5)c(Cl)c4)c3c2)o1 [Lapatinib] (first compound max 1 µM, 7x7, partner max 10 µM)	0.42	0.445	0.382	0.998	0.987	0.88	1	0.341	0.265	0.104	0.23	0.497	0.26	–
CN(CCO)CC[C@H](CSc1ccccc1)Nc1ccc(S(=O)(=O)NC(=O)c2ccc(N3CCC([C@@H](O)c4ccccc4-c4ccc(Cl)cc4)CC3)cc2)cc1S(=O)(=O)C(F)(F)F [AZD4320] + CC(=O)O[C@H]1C(=O)[C@@]2(C)[C@H]([C@H](OC(=O)c3ccccc3)[C@]3(O)C[C@H](OC(=O)[C@H](O)[C@@H](NC(=O)c4ccccc4)c4ccccc4)C(C)=C1C3(C)C)[C@]1(OC(C)=O)CO[C@@H]1C[C@@H]2O [Paclitaxel] (first compound max 1 µM, 7x7, partner max 3 µM)	0.716	0.941	1	1	0.99	0.985	1	1	1	1	0.93	0.968	1	-0.0081
C=CCn1c(=O)c2cnc(Nc3ccc(N4CCN(C)CC4)cc3)nc2n1-c1cccc(C(C)(C)O)n1 [AZD1775] + CCc1c2c(nc3ccc(O)cc13)-c1cc3c(c(=O)n1C2)COC(=O)[C@]3(O)CC [SN-38] (first compound max 1 µM, partner max 0.3 µM)	0.711	0.854	0.866	0.947	0.745	0.992	0.977	0.967	0.898	0.569	0.791	0.964	1	-0.0258
Cc1c2c(nn1C)CSCc1cc(n(C)n1)CSc1cc(c3ccccc3c1)OCCCc1c(C(=O)O)n(C)c3c-2c(Cl)ccc13 [AZD5991] + Nc1ccn([C@@H]2O[C@H](CO)[C@@H](O)C2(F)F)c(=O)n1 [Gemcitabine] (first compound max 1 µM, 7x7, partner max 0.3 µM)	0.196	0.642	0.828	0.899	0.684	0.997	1	0.968	0.83	0.642	0.713	–	0.877	0.0121
N#Cc1cnc(Nc2cc(NC[C@H]3CNCCO3)c(C(F)(F)F)cn2)cn1 [SRA737] + CCc1c2c(nc3ccc(O)cc13)-c1cc3c(c(=O)n1C2)COC(=O)[C@]3(O)CC [SN-38] (first compound max 10 µM, 7x7, partner max 0.3 µM)	0.495	0.854	0.818	0.93	0.582	0.997	0.987	0.945	0.89	0.453	0.798	0.948	1	-0.0395
N#Cc1cnc(Nc2cc(NC[C@H]3CNCCO3)c(C(F)(F)F)cn2)cn1 [SRA737] + C=CCn1c(=O)c2cnc(Nc3ccc(N4CCN(C)CC4)cc3)nc2n1-c1cccc(C(C)(C)O)n1 [AZD1775] (first compound max 10 µM, partner max 1 µM)	0.632	0.561	0.758	0.454	0.481	0.988	1	0.935	0.649	0.518	0.485	0.811	0.858	0.0779
Cc1cc2ncnn2cc1Nc1ncc2c(n1)n(C1CCOCC1)c(=O)n2C [AZD7648] + COc1cc([C@@H]2c3cc4c(cc3[C@@H](O[C@@H]3O[C@@H]5CO[C@@H](C)O[C@H]5[C@H](O)[C@H]3O)[C@H]3COC(=O)[C@H]23)OCO4)cc(OC)c1O [Etoposide] (first compound max 10 µM, 7x7, partner max 10 µM)	0.603	0.666	0.725	0.701	0.572	0.98	0.974	0.924	0.822	0.489	0.729	0.827	0.976	0.0835
C[C@@H](Oc1cc(-c2cnn(C3CCNCC3)c2)cnc1N)c1c(Cl)ccc(F)c1Cl [Crizotinib] + CC1=C(C(=CC=C1)Cl)NC(=O)C2=CN=C(S2)NC3=CC(=NC(=N3)C)N4CCN(CC4)CCO [Dasatinib] (first compound max 10 µM, 7x7, partner max 2 µM)	0.682	0.829	0.95	0.987	1	0.528	0.885	0.761	0.949	0.921	0.404	0.986	0.796	0.0947
N#Cc1cnc(Nc2cc(NC[C@H]3CNCCO3)c(C(F)(F)F)cn2)cn1 [SRA737] + Nc1ccn([C@@H]2O[C@H](CO)[C@@H](O)C2(F)F)c(=O)n1 [Gemcitabine] (first compound max 10 µM, 7x7, partner max 0.3 µM)	0.584	0.782	0.873	0.932	0.704	1	1	0.961	0.855	0.611	0.773	0.817	0.872	0.0135
C[C@@H](Oc1cc(-c2cnn(C3CCNCC3)c2)cnc1N)c1c(Cl)ccc(F)c1Cl [Crizotinib] + Cn1cnc2c(F)c(Nc3ccc(Br)cc3Cl)c(C(=O)NOCCO)cc21 [Selumetinib] (first compound max 10 µM, 7x7, partner max 10 µM)	0.673	0.456	0.964	0.866	0.933	0.889	0.621	0.742	0.78	0.572	0.365	0.883	0.858	-0.0049
C[C@@H]1COCCN1c1cc(C2([S@](C)(=N)=O)CC2)nc(-c2ccnc3[nH]ccc23)n1 [AZD6738] + C1CC(C1)(C(=O)[O-])C(=O)[O-].N.N.[Pt+2] [Carboplatin] (first compound max 10 µM, 7x7, partner max 10 µM)	0.254	0.58	0.664	0.609	0.459	0.946	0.76	0.659	0.448	0.423	0.458	0.544	0.802	–
O=C(c1cc(Cc2n[nH]c(=O)c3ccccc23)ccc1F)N1CCN(C(=O)C2CC2)CC1 [Olaparib] + CC1(C)CCC(CN2CCN(c3ccc(C(=O)NS(=O)(=O)c4ccc(NCC5CCOCC5)c([N+](=O)[O-])c4)c(Oc4cnc5[nH]ccc5c4)c3)CC2)=C(c2ccc(Cl)cc2)C1 [Venetoclax] (first compound max 10 µM, 7x7, partner max 1 µM)	0.199	0.108	0.384	0.0578	0.108	0.383	0.276	0.7	0.183	0.114	0.0962	0.249	0.403	0.0445
C[C@@H]1COCCN1c1cc(C2([S@](C)(=N)=O)CC2)nc(-c2ccnc3[nH]ccc23)n1 [AZD6738] + Nc1ccn([C@@H]2O[C@H](CO)[C@@H](O)C2(F)F)c(=O)n1 [Gemcitabine] (first compound max 10 µM, 7x7, partner max 0.3 µM)	0.67	0.79	0.947	0.961	0.782	1	1	0.955	0.858	0.625	0.834	0.83	0.893	-0.0179
C=CCn1c(=O)c2cnc(Nc3ccc(N4CCN(C)CC4)cc3)nc2n1-c1cccc(C(C)(C)O)n1 [AZD1775] + Nc1ccn([C@@H]2O[C@H](CO)[C@@H](O)C2(F)F)c(=O)n1 [Gemcitabine] (first compound max 1 µM, partner max 0.3 µM)	0.633	0.718	0.88	0.914	0.66	0.992	0.997	0.954	0.804	0.597	0.709	0.843	0.865	0.0097
O=C(c1cc(Cc2n[nH]c(=O)c3ccccc23)ccc1F)N1CCN(C(=O)C2CC2)CC1 [Olaparib] + Cc1c2c(nn1C)CSCc1cc(n(C)n1)CSc1cc(c3ccccc3c1)OCCCc1c(C(=O)O)n(C)c3c-2c(Cl)ccc13 [AZD5991] (first compound max 10 µM, 7x7, partner max 1 µM)	0.199	0.0524	0.37	0.21	0.381	0.771	1	0.362	0.165	0.142	0.157	0.384	0.449	0.0172
O=C(c1cc(Cc2n[nH]c(=O)c3ccccc23)ccc1F)N1CCN(C(=O)C2CC2)CC1 [Olaparib] + CN(CC[C@H](CSC1=CC=CC=C1)NC2=C(C=C(C=C2)S(=O)(=O)NC(=O)C3=CC=C(C=C3)N4CCC(CC4)[C@H](C5=CC=CC=C5C6=CC=C(C=C6)Cl)O)S(=O)(=O)C(F)(F)F)CCO [AZD4320] (first compound max 10 µM, 7x7, partner max 1 µM)	0.226	0.0831	0.509	0.116	0.191	0.348	0.343	0.982	0.494	0.321	0.274	0.326	0.984	0.0204
